Molecular target: alkyladenine DNA glycosylase (AAG) (Homo sapiens, UniProt P29372)
Experiment: TRES coupled AAG/APE1 activity assay at […]
Assay type: biochemical
Conditions: read-out: % inhibition at 10 μM

alkyladenine DNA glycosylase (AAG), sequence (P29372 18-298): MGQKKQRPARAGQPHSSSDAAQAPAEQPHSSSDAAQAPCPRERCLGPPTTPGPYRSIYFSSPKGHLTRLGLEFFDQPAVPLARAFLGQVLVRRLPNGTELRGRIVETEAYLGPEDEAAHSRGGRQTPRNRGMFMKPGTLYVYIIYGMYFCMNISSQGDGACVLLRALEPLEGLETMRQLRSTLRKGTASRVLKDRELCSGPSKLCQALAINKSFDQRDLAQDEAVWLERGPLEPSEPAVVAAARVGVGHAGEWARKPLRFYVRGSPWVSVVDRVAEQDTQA

inhibition at 10 µM: 77.5%
SMILES: O=c1c(O)c(-c2ccc(O)cc2O)oc2cc(O)cc(O)c12 [morin]

From article PMC10257196 (Journal of Pharmaceutical Analysis, 2023)
